Laboratory results reported in article PMC11356873, “Trolox, Ferulic, Sinapic, and Cinnamic Acid Derivatives of Proline and GABA with Antioxidant and/or Anti-Inflammatory Properties” (Molecules, 2024).

Columns and labels:
Bovine serum albumin = Bovine serum albumin (Bos taurus, UniProt P02769); experiment: Inhibition of fructose/copper-induced oxidative protein glycation; assay type: biochemical; details: concentration of 1mM, after 72 h of incubation
Procedure: The purification of the glycation product was based on protein precipitation and washing with trichloroacetic acid (TCA). The concentration of the glycation-modified protein was estimated by fluorescence measurements (excitation of 340 nm, emission of 410 nm). Incubations performed under the same conditions, yet in the absence of fructose, were used as a control. All the fluorescence measurements were expressed relatively to the standard quinine sulphate solution (1 μg/mL).

[1] = test system: lipid peroxidation of rat hepatic microsomal membranes; experiment: Inhibition of lipid peroxidation of rat hepatic microsomal membranes (TBA-reactive material); details: for IC50, lipid peroxidation / IC50: rat hepatic microsomal membranes, after 45 min of incubation; for IC50: read-out: IC50, lipid peroxidation
[2] = Interaction with the stable free radical DPPH; details: for Interaction with DPPH (in words): 25-200 μΜ; for % Interaction with DPPH / Time to completion of the reaction with DPPH: DPPH 200 μΜ; for % Interaction with DPPH: after 30 min of incubation
Procedure: The tested compounds, dissolved in absolute ethanol at final concentrations of 25 up to 200 μΜ, were mixed with DPPH and dissolved in the same solvent at a final concentration of 200 μΜ. The absorbance at 517 nm was recorded every 5 min for 30 min [41].

acetylcholinesterase = target: T1, acetylcholinesterase (Rattus norvegicus, UniProt P37136); experiment: Acetylcholinesterase inhibition (acetylthiocholine hydrolysis, rat brain homogenate); assay type: biochemical; details: acetylthiocholine 0.5 mM, after 7 min of incubation
T1 construct: mixed with brain homogenate (20 mg of tissue per mL) from untreated rats; from tissue; host or cells: rat brain homogenate
T1 sequence (P37136 32-614): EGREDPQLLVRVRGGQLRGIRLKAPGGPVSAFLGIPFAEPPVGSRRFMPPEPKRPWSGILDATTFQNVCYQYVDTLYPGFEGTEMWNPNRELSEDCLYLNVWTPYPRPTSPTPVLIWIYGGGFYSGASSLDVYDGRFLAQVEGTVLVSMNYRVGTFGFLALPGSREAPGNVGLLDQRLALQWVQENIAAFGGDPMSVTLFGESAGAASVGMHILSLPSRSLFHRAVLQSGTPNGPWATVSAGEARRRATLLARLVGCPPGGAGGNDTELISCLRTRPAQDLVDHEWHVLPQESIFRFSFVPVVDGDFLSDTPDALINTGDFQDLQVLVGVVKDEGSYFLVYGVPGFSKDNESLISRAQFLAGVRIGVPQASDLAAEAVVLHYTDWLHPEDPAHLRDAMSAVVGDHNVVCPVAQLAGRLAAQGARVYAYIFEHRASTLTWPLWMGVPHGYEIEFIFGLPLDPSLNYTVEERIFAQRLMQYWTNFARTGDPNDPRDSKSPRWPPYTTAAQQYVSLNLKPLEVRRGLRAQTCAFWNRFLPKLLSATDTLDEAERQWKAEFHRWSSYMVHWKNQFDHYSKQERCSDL
Procedure: The tested compounds, dissolved in 60% ethanol, were mixed with brain homogenate (20 mg of tissue per mL) from untreated rats (in 0.1 M phosphate buffer with a pH of 8) and acetylthiocholine (0.5 mM).

soybean lipoxygenase = target: T2, soybean lipoxygenase (Glycine max, UniProt P08170); experiment: Soybean lipoxygenase inhibition; assay type: biochemical
T2 construct: purchased Sigma (St. Louis, MO, USA)
T2 sequence (P08170 1-839): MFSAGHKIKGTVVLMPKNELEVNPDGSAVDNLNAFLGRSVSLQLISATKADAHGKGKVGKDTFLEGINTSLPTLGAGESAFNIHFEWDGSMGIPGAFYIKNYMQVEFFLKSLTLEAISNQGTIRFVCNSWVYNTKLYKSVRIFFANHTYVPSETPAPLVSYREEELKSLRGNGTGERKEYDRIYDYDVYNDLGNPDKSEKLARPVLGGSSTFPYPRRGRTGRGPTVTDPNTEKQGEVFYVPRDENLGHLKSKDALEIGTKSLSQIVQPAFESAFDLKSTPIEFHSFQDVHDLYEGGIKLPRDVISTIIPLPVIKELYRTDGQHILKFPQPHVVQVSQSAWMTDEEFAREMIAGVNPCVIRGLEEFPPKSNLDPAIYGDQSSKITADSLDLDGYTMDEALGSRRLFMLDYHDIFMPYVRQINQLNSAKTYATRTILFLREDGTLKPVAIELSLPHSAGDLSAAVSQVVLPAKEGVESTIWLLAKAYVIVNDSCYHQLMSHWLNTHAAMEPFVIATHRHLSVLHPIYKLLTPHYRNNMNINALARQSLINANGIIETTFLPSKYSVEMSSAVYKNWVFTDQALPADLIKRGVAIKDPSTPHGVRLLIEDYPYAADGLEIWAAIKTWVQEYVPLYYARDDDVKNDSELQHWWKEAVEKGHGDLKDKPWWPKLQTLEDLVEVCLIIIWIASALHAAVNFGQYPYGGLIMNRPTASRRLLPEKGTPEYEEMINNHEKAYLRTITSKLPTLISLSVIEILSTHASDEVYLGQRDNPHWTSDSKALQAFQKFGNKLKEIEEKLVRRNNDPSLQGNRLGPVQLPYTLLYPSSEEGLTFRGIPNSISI
Procedure: The reaction mixture (total volume of 3 mL) contained 100 μL of the test compounds (100 μM) or the solvent (absolute ethanol, control), 200 μL of soybean LOX (250 u/mL, in a 0.9% NaCl solution), and 2.6 mL of Tris–HCl buffer with a pH of 9.0. The reaction was initiated by the addition of 100 μL sodium linoleate (100 μM) in the sample mixture (with an equal volume of buffer added to the reference solution). The reaction was followed for 7 min at 28 °C, and the absorbance (234 nm) of a conjugated diene structure was recorded.

Sequence of Bovine serum albumin (P02769 25-607): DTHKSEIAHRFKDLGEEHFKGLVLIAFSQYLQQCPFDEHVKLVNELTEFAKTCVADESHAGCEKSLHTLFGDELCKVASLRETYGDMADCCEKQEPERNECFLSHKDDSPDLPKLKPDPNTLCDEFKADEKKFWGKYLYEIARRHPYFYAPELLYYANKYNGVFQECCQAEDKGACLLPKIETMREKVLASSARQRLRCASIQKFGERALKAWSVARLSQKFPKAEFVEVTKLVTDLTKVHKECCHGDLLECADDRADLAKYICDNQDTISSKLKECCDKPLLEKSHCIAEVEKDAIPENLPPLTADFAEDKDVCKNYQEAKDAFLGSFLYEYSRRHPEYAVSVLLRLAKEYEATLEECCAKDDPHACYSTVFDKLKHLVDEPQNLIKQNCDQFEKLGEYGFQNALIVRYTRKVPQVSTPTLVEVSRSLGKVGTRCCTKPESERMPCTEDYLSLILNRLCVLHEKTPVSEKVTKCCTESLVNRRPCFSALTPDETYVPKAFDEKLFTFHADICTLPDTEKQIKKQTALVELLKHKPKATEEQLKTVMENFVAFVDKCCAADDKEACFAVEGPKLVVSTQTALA

Structure (SMILES) | % Inhibition of protein glycation (Bovine serum albumin) | IC50, lipid peroxidation [1] | IC50 [1] [µM] | Interaction with DPPH (in words) [2] | IC50, acetylcholinesterase (acetylcholinesterase) | inhibition at 100 µM (soybean lipoxygenase) [%] | % Interaction with DPPH ([2]; compound 25 μΜ) [%] | % Interaction with DPPH ([2]; compound 50 μΜ) [%] | % Interaction with DPPH ([2]; compound 100 μΜ) [%] | Time to completion of the reaction with DPPH ([2]; compound 200 μΜ) | % Interaction with DPPH ([2]; compound 200 μΜ) [%] | IC50 (acetylcholinesterase) [µM] | inhibition at 1000 µM (Bovine serum albumin) [%] | Activity against lipid peroxidation relative to Trolox ([1]; comparison of IC50 values)
N=C(N)NN [Aminoguanidine, reference compound] | 56% |  |  |  |  |  |  |  |  |  |  |  |  | 
COC(=O)CCCNC(=O)C1CCCN1C(=O)/C=C/c1ccccc1 (stereo not shown) [Compound 4c, (E)-methyl 4-(1-cinnamoylpyrrolidine-2-carboxamido)butanoate] | did not exert any inhibition and - | could not inhibit lipid peroxidation | > 1000 | could not interact with DPPH at all | - | 40 |  |  |  |  |  |  |  | 
COC(=O)CCCNC(=O)C1CCCN1C(=O)/C=C/c1ccc(O)c(OC)c1 (stereo not shown) [Compound 1c, (E)-methyl 4-(1-(3-(4-hydroxy-3-methoxyphenyl)acryloyl)pyrrolidine-2-carboxamido)butanoate] |  |  | 839 |  |  | 36 | 10 | 24 | 37 | about 15 min | 58 | 219 | 41 | 
COC(=O)CCCNC(=O)C1CCCN1C(=O)/C=C/c1ccc(OC)c(OC)c1 (stereo not shown) [Compound 3c, (E)-methyl 4-(1-(3-(3,4-dimethoxyphenyl)acryloyl)pyrrolidine-2-carboxamido)butanoate] | did not exert any inhibition and - | could not inhibit lipid peroxidation | > 1000 | could not interact with DPPH at all |  | 32 |  |  |  |  |  | 284 |  | 
Cc1c(C)c2c(c(C)c1O)CCC(C)(C(=O)O)O2 (stereo not shown) [Trolox, 6-hydroxy-2,5,7,8-tetramethylchroman-2-carboxylic acid] |  |  | 25 |  |  |  | 19 | 38 | 90 |  | 92 |  |  | 
COC(=O)CCCNC(=O)C1CCCN1C(=O)C1(C)CCc2c(C)c(O)c(C)c(C)c2O1 (stereo not shown) [Compound 5c, Methyl 4-(1-(6-hydroxy-2,5,7,8-tetramethylchroman-2-carbonyl)pyrrolidine-2-carboxamido)-butanoate] |  |  | 8 |  | could not inhibit the enzyme and no inhibitory activity and - | 26 | 28 | 54 | 87 | completed in the first five minutes | 89 |  | 37 | about three times more active than Trolox
COC(=O)CCCNC(=O)C1CCCN1C(=O)/C=C/c1cc(OC)c(O)c(OC)c1 (stereo not shown) [Compound 2c, (E)-methyl 4-(1-(3-(4-hydroxy-3,5-dimethoxyphenyl)-acryloyl)pyrrolidine-2-carboxamido)-butanoate] |  |  | 290 |  |  | 40 | 17 | 36 | 64 | completed in the first five minutes | 85 | 298 | 48 | 
